# Measurements: publication PMC12521730, “Quantitative dual-isotope preclinical SPECT/CT imaging and biodistribution of the mercury-197m/g theranostic pair with [^197m/gHg]HgCl2 and a [^197m/gHg]Hg-tetrathiol complex as a platform for radiopharmaceutical development” (EJNMMI Radiopharmacy and Chemistry, 2025)
# Entries after “also recorded” stand apart in the source; their conditions may differ.
# Experiment: In vivo SPECT/CT imaging
# Parameters: species or system healthy male C57BL/6 mice
# Conditions: for organs of tracer accumulation (qualitative): 0-2 h post injection
# Description: For animal injection, the tracer was prepared at high molar activity. Radiolabeling of H4Tetrathiol (10^–2 M in DMSO; 40 μL for imaging, 20 μL for bioD) (or DMSO, for [^197m/gHg]HgCl2 mice) with [^197m/gHg]HgCl2 (imaging: 26.7 MBq total m + g, 62 μL; bioD: 13.04 MBq total m + g, 31 μL) was performed in a mixture of ammonium acetate buffer (1 M; pH 7; 198 μL for imaging or 149 μL for bioD) and 6 M NaOH (72 μL or 38 μL required to achieve a pH of 7.5 after addition of activity, for imaging or BioD labeling, respectively). The reaction was allowed to stand for 1 h at 37 °C and quantitative (> 99%) non-isolated percentage radiochemical yield (%RCY) was confirmed via the iTLC methods mentioned above. Further, 100 µL of the reaction was diluted with 50 µL of PBS Tween-20 (0.01 M sodium phosphate, 0.15 M NaCl, 0.05% Tween-20) for imaging mice, or 50 µL of the reaction was diluted with 100 µL of PBS Tween-20 for BioD mice. The tracers were prepared immediately before injection to avoid radiolysis and minimize the tracer loss to any surfaces due to its lipophilicity. The injected doses of each isomer, ^197mHg and ^197gHg, were quantified by measuring an aliquot of known volume of each tracer preparation via HPGe gamma spectroscopy and decay corrected for time of injection using the Eqs. (1) and (2).
# The study was conducted in compliance with the guidelines set by the Canadian Council on Animal Care (CCAC) and approved by the Animal Care Committee (ACC) at the University of British Columbia (A20-0132). A total of eight healthy male C57BL/6 mice weighing approximately 30 g for group 1 and 25 g for group 2 were used in the study. The mice were divided into two experimental groups: group 1 (n = 4) received free [^197m/gHg]HgCl2, while group 2 (n = 4) received [^197m/gHg]Hg-Tetrathiol. Within each group, one mouse was allocated for imaging, while the rest were designated for ex vivo biodistribution analysis. For SPECT imaging, the designated mice were anesthetized using isoflurane via a precision vaporizer. […] Once anesthetized, each imaging mouse received an intravenous (IV) injection via the lateral tail vein of 150 μL of [^197m/gHg]HgCl2 (0.492 MBq ^197mHg + 3.171 MBq ^197gHg) or [^197m/gHg]Hg-Tetrathiol (0.899 MBq ^197mHg + 4.230 MBq ^197gHg) in PBS Tween-20 (0.01 M Na Phosphate, 0.15 M NaCl, 0.05% Tween-20).
# The animals were immediately placed in the scanner and whole-body scans were acquired dynamically during 120 min post-injection (6 frames × 20 min/frame). Throughout the entire scanning procedure, mice were kept under isoflurane anesthesia and body temperature was maintained constant using a heated imaging bed. […] These energy window settings yielded the optimum, and most robust quantification results based on the phantom experiments (vide supra). […]
smiles,measurement,setting,value
[Cl][Hg][Cl] [[^197m/gHg]HgCl2],organs of tracer accumulation (qualitative),,primarily accumulating in the kidneys; also recorded: strong affinity for the kidneys
O=C(CC[S-])OCC(COC(=O)CC[S-])(COC(=O)CC[S-])COC(=O)CC[S-].[Hg+2] [[^197m/gHg]Hg-Tetrathiol],organs of tracer accumulation (qualitative),,predominantly accumulates in the spleen and liver
same,organs of tracer accumulation (qualitative),listed as [^197m/gHg]Hg-tetrathiol,tracer accumulation primarily in the liver and spleen
same,blood clearance and excretion (qualitative),compared with [197m/gHg]HgCl2,faster blood clearance and excretion through the reticuloendothelial system (RES)
